This note sets out measurements from ChEMBL document CHEMBL5537151, “Design, synthesis and bioactivity evaluation of novel fusion peptides and their CPT conjugates inducing effective anti-tumor responses on HER2 positive tumors” (Eur J Med Chem, 2024).

The subject of data set [1] is SK-BR-3. Description: Induction of apoptosis in human SK-BR-3 cells assessed as late apoptotic cells at 1 uM incubated for 24 hrs by Annexin V-FITC/PI staining based flow cytometry analysis (reference value: 1.11%). It is filed as functional.
Data set [2] deals with SK-BR-3. Nature of the data set: cells. To be noted: Homo sapiens, SK-BR-3, 48 h.
Description: Cytotoxicity against HER-positive human SK-BR-3 cells incubated for 48 hrs by CCK-8 assay
In data set [3] the test system is SK-BR-3. Nature of the data set: Induction of apoptosis in human SK-BR-3 cells assessed as necrotic cells at 1 uM incubated for 24 hrs by Annexin V-FITC/PI staining based flow cytometry analysis (reference value: 1.49%). It is filed as functional.
The test system of data set [4] is SK-BR-3. Description: Induction of apoptosis in human SK-BR-3 cells assessed as early apoptotic cells at 1 uM incubated for 24 hrs by Annexin V-FITC/PI staining based flow cytometry analysis (reference value: 2.80%). It counts as functional.
The next data set concerns NCI-N87. Nature of the data set: cells. To be noted: Homo sapiens, NCI-N87, 48 h.
A short description of data set [5]: Toxicity in nude mouse xenografted with human SK-BR-3 cells assessed as increase in ALT level at 8 umol/kg, iv administered every 3 days for 14 days. It counts as organism-based. To be noted: in vivo, 336 h, dose 8 µmol/kg, time 14 day.
The nature of data set [6]: Toxicity in nude mouse xenografted with human SK-BR-3 cells assessed as change in total protein level at 8 umol/kg, iv administered every 3 days for 14 days. To be noted: in vivo, 336 h, dose 8 µmol/kg, time 14 day. It is filed as organism-based.
Data set [7] can be described thus: Toxicity in nude mouse xenografted with human SK-BR-3 cells assessed as increase in AST level at 8 umol/kg, iv administered every 3 days for 14 days. To be noted: in vivo, 336 h, dose 8 µmol/kg, time 14 day. It counts as organism-based.
Data set [8] is described as follows: Cytotoxicity against HER-negative human MCF-10A cells incubated for 48 hrs by CCK-8 assay. It counts as toxicity, cell-based.
In another data set the test system is MDA-MB-231. Description: cells. To be noted: Homo sapiens, MDA-MB-231, 48 h.
The nature of data set [9]: Toxicity in nude mouse xenografted with human SK-BR-3 cells assessed as change in alkaline phosphatase level at 8 umol/kg, iv administered every 3 days for 14 days. It counts as organism-based. To be noted: in vivo, 336 h, dose 8 µmol/kg, time 14 day.
The nature of data set [10]: Toxicity in nude mouse xenografted with human SK-BR-3 cells assessed as change in albumin level at 8 umol/kg, iv administered every 3 days for 14 days. It is filed as organism-based. Particulars: in vivo, 336 h, dose 8 µmol/kg, time 14 day.
Data set [11] is described as follows: Toxicity in nude mouse xenografted with human SK-BR-3 cells assessed as change in globulin level at 8 umol/kg, iv administered every 3 days for 14 days. To be noted: in vivo, 336 h, dose 8 µmol/kg, time 14 day. It counts as organism-based.
Data set [12] relates to SK-BR-3. Nature of the data set: Induction of apoptosis in human SK-BR-3 cells assessed as live cells at 1 uM incubated for 24 hrs by Annexin V-FITC/PI staining based flow cytometry analysis (reference value: 94.6%). It counts as functional.
The subject of the next data set is SK-OV-3. Nature of the data set: cells. Particulars: Homo sapiens, SK-OV-3, 48 h.
The test system of data set [13] is SK-BR-3. Description: Induction of apoptosis in human SK-BR-3 cells assessed as downregulation of XIAP protein expression incubated for 24 hrs in presence of SMAC peptide by Western blot analysis. It is filed as functional, cell-based.
Data set [14] has as its system SK-BR-3. Description: Induction of apoptosis in human SK-BR-3 cells assessed as live cells at 1 uM incubated for 24 hrs in presence of SMAC peptide by Annexin V-FITC/PI staining based flow cytometry analysis (reference value: 94.6%). It is filed as functional.
A short description of data set [15]: Toxicity in nude mouse xenografted with human SK-BR-3 cells assessed as change in alkaline phosphatase level at 8 umol/kg, iv administered every 3 days for 14 days in presence of SMAC peptide. To be noted: in vivo, 336 h, dose 8 µmol/kg, time 14 day. It is filed as organism-based.
For data set [16], the system named is SK-BR-3. Nature of the data set: Antitumor activity against human SK-BR-3 cells xenografted in nude mouse assessed as inhibition of tumor growth at 8 umol/kg, iv administered every 3 days for 14 days with SMAC peptide and measured every 2 days by vernier caliper analysis. It counts as functional, organism-based. Particulars: dose 8.0 µmol/kg, time 14.0 day.

The nature of data set [17]: Toxicity in nude mouse xenografted with human SK-BR-3 cells assessed as increase in creatinine level at 8 umol/kg, iv administered every 3 days for 14 days in presence of SMAC peptide. It counts as organism-based. Particulars: in vivo, 336 h, dose 8 µmol/kg, time 14 day.
Data set [18] relates to SK-BR-3. Nature of the data set: Induction of apoptosis in human SK-BR-3 cells assessed as downregulation of cIAP1 protein expression incubated for 24 hrs in presence of SMAC peptide by Western blot analysis. It counts as functional, cell-based.
In data set [19] the test system is SK-BR-3. Description: Induction of apoptosis in human SK-BR-3 cells assessed as downregulation of XIAP protein expression incubated for 24 hrs by Western blot analysis. It is filed as functional, cell-based.
In data set [20] the test system is SK-BR-3. Description: Induction of apoptosis in human SK-BR-3 cells assessed as downregulation of cIAP1 protein expression incubated for 24 hrs by Western blot analysis. It counts as functional, cell-based.
For data set [21], the system named is SK-BR-3. Description: Induction of apoptosis in human SK-BR-3 cells assessed as early apoptotic cells at 1 uM incubated for 24 hrs in presence of SMAC peptide by Annexin V-FITC/PI staining based flow cytometry analysis (reference value: 2.80%). It counts as functional.
The nature of data set [22]: Toxicity in nude mouse xenografted with human SK-BR-3 cells assessed as change in total protein level at 8 umol/kg, iv administered every 3 days for 14 days in presence of SMAC peptide. To be noted: in vivo, 336 h, dose 8 µmol/kg, time 14 day. It counts as organism-based.
The subject of data set [23] is SK-BR-3. Nature of the data set: Induction of apoptosis in human SK-BR-3 cells assessed as necrotic cells at 1 uM incubated for 24 hrs in presence of SMAC peptide by Annexin V-FITC/PI staining based flow cytometry analysis (reference value: 1.49%). It is filed as functional.
The nature of data set [24]: Toxicity in nude mouse xenografted with human SK-BR-3 cells assessed as change in albumin level at 8 umol/kg, iv administered every 3 days for 14 days in presence of SMAC peptide. It counts as organism-based. Particulars: in vivo, 336 h, dose 8 µmol/kg, time 14 day.
Data set [25] can be described thus: Toxicity in nude mouse xenografted with human SK-BR-3 cells assessed as increase in blood urea nitrogen level at 8 umol/kg, iv administered every 3 days for 14 days in presence of SMAC peptide. It counts as organism-based. To be noted: in vivo, 336 h, dose 8 µmol/kg, time 14 day.
Data set [26] relates to SK-BR-3. Description: Antitumor activity against human SK-BR-3 cells xenografted in nude mouse assessed as inhibition of tumor growth at 8 umol/kg, iv administered every 3 days for 14 days and measured every 2 days by vernier caliper analysis. Particulars: dose 8.0 µmol/kg, time 14.0 day. It counts as functional, organism-based.
The nature of data set [27]: Toxicity in nude mouse xenografted with human SK-BR-3 cells assessed as increase in ALT level at 8 umol/kg, iv administered every 3 days for 14 days in presence of SMAC peptide. It is filed as organism-based. To be noted: in vivo, 336 h, dose 8 µmol/kg, time 14 day.
Data set [28] concerns SK-BR-3. Description: Induction of apoptosis in human SK-BR-3 cells assessed as late apoptotic cells at 1 uM incubated for 24 hrs in presence of SMAC peptide by Annexin V-FITC/PI staining based flow cytometry analysis (reference value: 1.11%). It counts as functional.
Data set [29] can be described thus: Toxicity in nude mouse xenografted with human SK-BR-3 cells assessed as increase in AST level at 8 umol/kg, iv administered every 3 days for 14 days in presence of SMAC peptide. Particulars: in vivo, 336 h, dose 8 µmol/kg, time 14 day. It counts as organism-based.
Data set [30] is described as follows: Toxicity in nude mouse xenografted with human SK-BR-3 cells assessed as change in globulin level at 8 umol/kg, iv administered every 3 days for 14 days in presence of SMAC peptide. It is filed as organism-based. To be noted: in vivo, 336 h, dose 8 µmol/kg, time 14 day.

pIC50: −log10 of the molar value. The source made the active and inactive calls. The calls are words filed in the database; no cut-off is given here.

Description for MDA-MB-231: Cytotoxicity against HER-negative human MDA-MB-231 cells incubated for 48 hrs by CCK-8 assay
Description for NCI-N87: Cytotoxicity against HER-positive human NCI-N87 cells incubated for 48 hrs by CCK-8 assay
Description for SK-OV-3: Cytotoxicity against HER-positive human SK-OV-3 cells incubated for 48 hrs by CCK-8 assay

As for `CC[C@@]1(O)C(=O)OCc2c1cc1n(c2=O)Cc2cc3ccccc3nc2-1` [CAMPTOTHECIN], the Activity with SK-BR-3 [1] was 16.9%; in the data set on SK-BR-3 [3], 0.94%; with SK-BR-3 [4] it was 27.3%; in [5] it was “Toxic”; in data set [6], “Non-Toxic”; in [7], “Toxic”. Besides, the Activity result in [9] is given as “Non-Toxic”; in data set [10] it was “Non-Toxic”; in [11], “Non-Toxic”; with SK-BR-3 [12], 54.9%. The negative logarithm of the IC50 (pIC50) is 6.42 with SK-BR-3 [2], 5.68 with NCI-N87, 6.28 with MDA-MB-231 and 5.39 in the data set on SK-OV-3. The same compound gave an IC50 at 48 h in [8] of 3020 nM.
In the case of `CCC1(OC(=O)OCCSSC[C@@H](N)C(=O)N[C@@H](CC(N)=O)C(=O)N2CCC[C@H]2C(=O)N[C@@H](CC(N)=O)C(=O)N[C@@H](Cc2c[nH]c3ccccc23)C(=O)NCC(=O)N[C@@H](CCCNC(=N)N)C(=O)N[C@@H](CO)C(=O)N[C@@H](Cc2c[nH]c3ccccc23)C(=O)N[C@@H](Cc2ccc(O)cc2)C(=O)N[C@@H](CC(N)=O)C(=O)N[C@@H](CCC(N)=O)C(=O)N[C@@H](CCCNC(=N)N)C(=O)N[C@@H](Cc2ccccc2)C(=O)N[C@@H](CCCCN)C(=O)N[C@@H](CCCCN)C(N)=O)C(=O)OCc2c1cc1n(c2=O)Cc2cc3ccccc3nc2-1` (stereo partly drawn), the Activity in the data set on SK-BR-3 [1] is reported as 4.89%; in the data set with SK-BR-3 [14], 74.9%; in the data set with SK-BR-3 [3] it was 1.23%; in [15] it was “Non-Toxic”; in [17], “Toxic”; in the data set on SK-BR-3 [4] it was 15.1%. The Activity result is given as “Toxic” in data set [5]; “Non-Toxic” in data set [6]; “Toxic” in [7]; 16.8% in the data set on SK-BR-3 [21]; “Non-Toxic” in data set [22]; “Non-Toxic” in [9]. The Activity result in data set [10] is given as “Non-Toxic”; in the data set with SK-BR-3 [23] it was 1.34%; in data set [11], “Non-Toxic”; in data set [24], “Non-Toxic”; in data set [25] it was “Toxic”; in data set [27], “Toxic”. In addition, the Activity in the data set on SK-BR-3 [28] was 6.9%; with SK-BR-3 [12], 78.8%; in data set [29], “Toxic”; in data set [30], “Non-Toxic”. The result in the data set with SK-BR-3 [13], with SK-BR-3 [16], in the data set on SK-BR-3 [19] and in the data set on SK-BR-3 [26] was Active. The result in the data set with SK-BR-3 [18] and with SK-BR-3 [20] was inactive.
